Literature values as cited in article PMC8435724, “A Single L/D-Substitution at Q4 of the mInsA2-10 Epitope Prevents Type 1 Diabetes in Humanized NOD Mice” (Frontiers in Immunology, 2021).

Tests used:
[1] = system: insulin B15-23-reactive CD8^+ T cell clone G9C8; conditions: cytotoxicity and IFN-γ production assays
T cells of T1D patients = system: T cells of T1D patients
Source text: Thus, human InsA2-10 is likely to be an immunogenic target for diabetic patients.

Row | Substance | antagonist activity on clone G9C8 (in words) [1] | presence of specific T cell responses (in words) (T cells of T1D patients)
1 | G6H: APL of insulin B15-23 (LYLVCGERG) substituted at position 6 (LYLVCHERG) | antagonist activity | 
2 | GIVEQCCTSI [InsA1-10, human proinsulin (PPI) 90-99 or InsA1-10 (…)] |  | presence of specific T cell responses
3 | R8L: APL of insulin B15-23 (LYLVCGERG) substituted at position 8 (LYLVCGELG) | antagonist activity | 
